Measured values taken from patent publication US20240279218A1 (Hoffmann-La Roche Inc., priority 2016, published 2024).

Columns and labels:
h-GABA-A α5β3γ2 [1] = molecular target: T1, h-GABA-A α5β3γ2 (Homo sapiens (Human), UniProt P18507+P31644); assay: Two-electrode voltage clamp electrophysiology in Xenopus oocytes expressing GABAA receptors, modulation of GABA EC20 current; format: cell-based; conditions: Xenopus oocytes; for Efficacy (GABA) %: % modulation of GABA EC20 = 100*(Fold increase−1); for Fold increase h-GABA-A α5β3γ2 oocyte: GABA EC20, test compound at approx. 30 fold its Ki
Description: Xenopus laevis oocytes at maturation stages V-VI were used for the expression of cloned mRNA encoding GABAA receptor subunits. Oocytes ready for RNA micro-injection were bought from Ecocyte, Castrop-Rauxel, Germany and stored in modified Barth's medium (composition in mM: NaCl 88, KCl 1, NaHCO32.4, HEPES 10, MgSO4 0.82, CaNO3 0.33, CaCl2) 0.33, pH=7.5) at 20° C. until the experiment.
Oocytes were plated in 96-well plates to be used in an automated instrument (Robo-ocyte, MultiChannelSystems, Reutlingen, Germany) for microinjection and electrophysiological recordings. Approximately 50 nl of an aqueous solution containing the RNA transcripts for the subunits of the desired GABAA receptor was injected into each oocyte. RNA concentrations ranged between 0.3 and 16 ng/μl/subunit and were adjusted in pilot experiments to obtain GABA responses of a suitable size and a maximal effect of the reference modulator, Beta-CCM (β-CCM), a betacarboline negative allosteric modulator (NAM) at the GABAA receptor benzodiazepine (BZD) binding site or Midazolam, a benzodiazepine positive allosteric modulator (PAM) at the GABAA receptor benzodiazepine (BZD) binding site. The concentration of the γ2 subunit encoding RNA usually was 5-to 10-fold higher than the RNAs encoding the other subunits. Oocytes were kept in modified Barth's medium (composition in mM: NaCl 88, KCl 1, NaHCO3 4, HEPES 10, MgSO4 0.82, CaNO3 0.33, CaCl2 0.33, pH=7.5) at 20° C. until the experiment.
Electrophysiological experiments were performed on days 3 to 5 after the micro-injection of mRNA. During the experiment the oocytes were constantly superfused by a solution containing (in mM) NaCl 90, KCl 1, HEPES 5, MgCl2 1, CaCl2 1 (pH 7.4). Oocytes were impaled by two glass microelectrodes (resistance: 0.4 MΩ) which were filled with a solution containing KCl 1M+K-acetate 1.5 M and voltage-clamped to −80 mV. The recordings were performed at room temperature using the Roboocyte two-electrode voltage clamp system (Multichannelsystem). After an initial equilibration period of 1.5 min GABA was added for 1.5 min at a concentration evoking approximately 20% of a maximal current response (EC20). After another rest interval of 2.5 min GABA was again added evoking a response of similar amplitude and shape. […] Current traces were recorded at a digitization rate of 10 Hz during and shortly before and after the GABA application.
Each compound and concentration was tested on at least 3 oocytes.
For the analysis, the digitized current traces of the first and second GABA response were superimposed and, if necessary, rescaled to equal maximal amplitudes. The ratio between the two responses during the time interval of test compound application was calculated point by point. The extremum of the resulting “ratio trace” was taken as the efficacy (“Fold increase”) of the compound expressed as “% modulation of GABA EC20” (100*(Fold increase−1)).

h-GABA-A α5β3γ2 [2] = molecular target: T1, h-GABA-A α5β3γ2; assay: [3H]flumazenil competition binding assay, membranes of HEK293 cells expressing human GABAA receptors; conditions: displacement of [3H]flumazenil 0.5 nM, HEK293 cells expressing human receptors, mean of two determinations; read-out: Ki h-GABA-A α5β3γ2
Description: The affinity of compounds at GABAA receptor subtypes was measured by competition for [3H]flumazenil (85 Ci/mmol; Roche) binding to HEK293 cells expressing rat (stably transfected) or human (transiently transfected) receptors of composition α1β3γ2, α2β3γ2, α3β3γ2 and α5β3γ2.
Cell pellets were suspended in Krebs-tris buffer (4.8 mM KCl, 1.2 mM CaCl2, 1.2 mM MgCl2, 120 mM NaCl, 15 mM Tris; pH 7.5; binding assay buffer), homogenized by polytron for ca. 20 sec on ice and centrifuged for 60 min at 4° C. (50000 g; Sorvall, rotor: SM24=20000 rpm). The cell pellets were resuspended in Krebs-tris buffer and homogenized by polytron for ca. 15 sec on ice. Protein was measured (Bradford method, Bio-Rad) and aliquots of 1 mL were prepared and stored at −80° C.
Assays were incubated to equilibrium for 1 hour at 4° C. and harvested onto GF/C uni-filters (Packard) by filtration using a Packard harvester and washing with ice-cold wash buffer (50 mM Tris; pH 7.5). After drying, filter-retained radioactivity was detected by liquid scintillation counting. Ki values were calculated using Excel-Fit (Microsoft) and are the means of two determinations.

Row | Efficacy (GABA) % (h-GABA-A α5β3γ2 [1]) | Fold increase h-GABA-A α5β3γ2 oocyte (h-GABA-A α5β3γ2 [1]) | Ki (h-GABA-A α5β3γ2 [2]) | Structure (SMILES)
1 | 63% | 1.63 | 0.0083 µM | Cc1ccc(-c2noc(C)c2COc2ccc(C(=O)NCC3CC3)cn2)cn1 [Example 2, N-(cyclopropylmethyl)-6-((5-methyl-3-(6-methyl-3-pyridyl)isoxazol-4-yl)methoxy)pyridine-3-carboxamide]
2 | 41% | 1.41 | 0.0014 µM | CCNC(=O)c1ccc(OCc2c(-c3ccc(C)nc3)noc2C)nc1 [Example 3, N-ethyl-6-((5-methyl-3-(6-methyl-3-pyridyl)isoxazol-4-yl)methoxy)pyridine-3-carboxamide]
3 | 150% | 2.5 | 0.0073 µM | CCC[C@@H](CO)NC(=O)c1ccc(OCc2c(-c3ccc(C)nc3)noc2C)nc1 [Example 4, (S)—N-(1-hydroxypentan-2-yl)-6-((5-methyl-3-(6-methylpyridin-3-yl)isoxazol-4-yl)methoxy)nicotinamide]
4 | 245% | 3.45 | 0.0586 µM | CCC[C@@H](CO)NC(=O)c1ccc(OCc2c(-c3ccc(C)nc3)noc2C2CC2)nc1 [Example 5, 6-((5-cyclopropyl-3-(6-methyl-3-pyridyl)isoxazol-4-yl)methoxy)-N-((1S)-1-(hydroxymethyl)butyl)pyridine-3-carboxamide]
5 | 167% | 2.67 | 0.0541 µM | Cc1ccc(-c2noc(C3CC3)c2COc2ccc(C(=O)NC3CCOCC3)cn2)cn1 [Example 6, 6-((5-cyclopropyl-3-(6-methyl-3-pyridyl)isoxazol-4-yl)methoxy)-N-tetrahydropyran-4-yl-pyridine-3-carboxamide]
6 | 102% | 2.02 | 0.0256 µM | CCC[C@@H](CO)NC(=O)c1ccc(OCc2c(-c3ccc(C)nc3)noc2C)nn1 [Example 7, (S)—N-(1-hydroxypentan-2-yl)-6-((5-methyl-3-(6-methylpyridin-3-yl)isoxazol-4-yl)methoxy)pyridazine-3-carboxamide]
7 | 62% | 1.62 | 0.0137 µM | Cc1ccc(-c2noc(C)c2COc2cc3c(cn2)C(=O)N(CC(C)C)C3)cn1 [Example 9, 2-isobutyl-6-((5-methyl-3-(6-methylpyridin-3-yl)isoxazol-4-yl)methoxy)-1H-pyrrolo[3,4-c]pyridin-3(2H)-one]
8 | 80% | 1.8 | 0.0189 µM | Cc1ccc(-c2noc(C)c2COc2cc3c(cn2)C(=O)N(C)C3)cn1 [Example 10, 2-methyl-6-((5-methyl-3-(6-methylpyridin-3-yl)isoxazol-4-yl)methoxy)-1H-pyrrolo[3,4-c]pyridin-3(2H)-one]
9 | 55% | 1.55 | 0.0112 µM | Cc1ccc(-c2noc(C)c2COc2ccc(C(=O)NCC(C)C)cn2)cn1 [Example 11, N-isobutyl-6-((5-methyl-3-(6-methylpyridin-3-yl)isoxazol-4-yl)methoxy)nicotinamide]
10 | 74% | 1.74 | 0.0163 µM | Cc1ccc(-c2noc(C)c2COc2cc3c(cn2)C(=O)N(CCO)C3)cn1 [Example 12, 2-(2-hydroxyethyl)-6-((5-methyl-3-(6-methylpyridin-3-yl)isoxazol-4-yl)methoxy)-1H-pyrrolo[3,4-c]pyridin-3(2H)-one]
11 | 158% | 2.58 | 0.0144 µM | CCC[C@@H](CO)N1Cc2cc(OCc3c(-c4ccc(C)nc4)noc3C)ncc2C1=O [Example 13, (S)-2-(1-hydroxypentan-2-yl)-6-((5-methyl-3-(6-methylpyridin-3-yl)isoxazol-4-yl)methoxy)-1H-pyrrolo[3,4-c]pyridin-3(2H)-one]
12 | 160% | 2.6 | 0.0745 µM | CCC[C@@H](CO)NC(=O)c1cnc(OCc2c(-c3ccc(C)nc3)noc2C)cn1 [Example 14, N-((1S)-1-(hydroxymethyl)butyl)-5-((5-methyl-3-(6-methyl-3-pyridyl)isoxazol-4-yl)methoxy)pyrazine-2-carboxamide]
13 | 55% | 1.55 | 0.0198 µM | Cc1ccc(-c2noc(C)c2COc2cnc(C(=O)NC3CCOCC3)cn2)cn1 [Example 15, 5-((5-methyl-3-(6-methylpyridin-3-yl)isoxazol-4-yl)methoxy)-N-(tetrahydropyran-4-yl)pyrazine-2-carboxamide]
14 | 85% | 1.85 | 0.0192 µM | Cc1ccc(-c2noc(C)c2COc2ccc(C(=O)NC3CCS(=O)(=O)C3)cn2)cn1 (stereo not drawn) [Example 16, N-(1,1-dioxothiolan-3-yl)-6-((5-methyl-3-(6-methyl-3-pyridyl)isoxazol-4-yl)methoxy)pyridine-3-carboxamide]
15 | 60% | 1.6 | 0.0098 µM | Cc1ccc(-c2noc(C)c2COc2ccc(C(N)=O)cn2)cn1 [Example 17, 6-((5-methyl-3-(6-methylpyridin-3-yl)isoxazol-4-yl)methoxy)nicotinamide]
16 | 59% | 1.59 | 0.0102 µM | Cc1ccc(-c2noc(C)c2COc2ccc(C(N)=O)nn2)cn1 [Example 18, 6-((5-methyl-3-(6-methylpyridin-3-yl)isoxazol-4-yl)methoxy)pyridazine-3-carboxamide]
17 | 77% | 1.77 | 0.0052 µM | Cc1ccc(-c2noc(C)c2COc2ccc(C(=O)N[C@H]3CCS(=O)(=O)C3)cn2)cn1 [Example 19, N-((3S)-1,1-dioxothiolan-3-yl)-6-((5-methyl-3-(6-methylpyridin-3-yl)-1,2-oxazol-4-yl)methoxy)pyridine-3-carboxamide]
18 | 95% | 1.95 | 0.0118 µM | Cc1ccc(-c2noc(C)c2COc2ccc(C(=O)N[C@@H]3CCS(=O)(=O)C3)cn2)cn1 [Example 20, N-((3R)-1,1-dioxothiolan-3-yl)-6-((5-methyl-3-(6-methylpyridin-3-yl)-1,2-oxazol-4-yl)methoxy)pyridine-3-carboxamide]
19 | 119% | 2.19 | 0.0054 µM | Cc1ccc(-c2noc(C)c2COc2ccc(C(=O)NC3CCS(=O)(=O)CC3)cn2)cn1 [Example 21, N-(1,1-dioxothian-4-yl)-6-((5-methyl-3-(6-methylpyridin-3-yl)-1,2-oxazol-4-yl)methoxy)pyridine-3-carboxamide]

Row | Structure (SMILES) | Efficacy (GABA) % (h-GABA-A α5β3γ2 [1]) | Fold increase h-GABA-A α5β3γ2 oocyte (h-GABA-A α5β3γ2 [1]) | Ki (h-GABA-A α5β3γ2 [2])
20 | Cc1ccc(-c2noc(C)c2COc2ccc(C(=O)NC3CCOCC3)nn2)cn1 [Example 8, 6-((5-methyl-3-(6-methylpyridin-3-yl)isoxazol-4-yl)methoxy)-N-(tetrahydropyran-4-yl)pyridazine-3-carboxamide] | 97% | 1.97 | 0.0087 µM
